Consider 14 molecules from ChEMBL document CHEMBL5120916, “Structure-Activity Relationships and Antileukemia Effects of the Tricyclic Benzoic Acid FTO Inhibitors” (J Med Chem, 2022).

pIC50: −log10 of the molar value. Calls of active or inactive are those of the source. No cut-off for these calls is given here.

Data set [1] deals with T1, Alpha-ketoglutarate-dependent dioxygenase FTO (Homo sapiens, UniProt Q9C0B1). Put plainly: Inhibition of N-terminal His-tagged human FTO expressed in Escherichia coli BL21(DE3) by PAGE based assay.
Target sequence in this assay (Q9C0B1 whole entry): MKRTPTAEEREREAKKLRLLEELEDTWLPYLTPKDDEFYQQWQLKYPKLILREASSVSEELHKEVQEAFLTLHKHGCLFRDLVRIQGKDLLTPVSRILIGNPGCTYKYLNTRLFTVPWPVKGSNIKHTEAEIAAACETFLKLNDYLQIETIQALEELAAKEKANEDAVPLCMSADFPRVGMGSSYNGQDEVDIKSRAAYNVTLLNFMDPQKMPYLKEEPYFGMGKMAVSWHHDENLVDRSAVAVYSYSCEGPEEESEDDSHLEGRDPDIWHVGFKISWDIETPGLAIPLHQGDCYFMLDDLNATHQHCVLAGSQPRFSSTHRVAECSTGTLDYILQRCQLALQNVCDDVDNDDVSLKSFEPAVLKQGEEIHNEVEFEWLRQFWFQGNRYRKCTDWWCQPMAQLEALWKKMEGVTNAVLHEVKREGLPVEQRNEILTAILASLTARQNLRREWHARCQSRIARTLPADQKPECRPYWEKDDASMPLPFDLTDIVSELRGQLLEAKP
The subject of data set [2] is NB-4. Put plainly: Antiproliferative activity against human NB-4 cells assessed as reduction in cell viability at 10 uM administered as single dose measured after 48 hrs by CCK-8 assay. It counts as functional, cell-based. In general terms: Tetrazolium assays rely on reduction of a dye to a coloured formazan, in cell work by metabolically active cells.
For data set [3], the system named is MONO-MAC-6. Put plainly: Antiproliferative activity against human MONO-MAC-6 cells assessed as reduction in cell viability at 10 uM administered as single dose measured after 48 hrs by CCK-8 assay. It counts as functional, cell-based.
The test system of data set [4] is NB-4. Put plainly: Antiproliferative activity against human NB-4 cells assessed as reduction in cell viability measured after 48 hrs by CCK-8 assay. The settings on record: NB-4, 48 h.
Data set [5] concerns MONO-MAC-6. Kind of data set: Antiproliferative activity against human MONO-MAC-6 cells assessed as reduction in cell viability measured after 48 hrs by CCK-8 assay. The note with it: MONO-MAC-6, 48 h.
The subject of a further data set is THP-1. Kind of data set: Antiproliferative activity against human THP-1 cells assessed as reduction in cell viability measured after 48 hrs by CCK-8 assay. The note with it: THP-1, 48 h.
In a further data set the test system is HEL. Kind of data set: Antiproliferative activity against HEL cells assessed as reduction in cell viability measured after 48 hrs by CCK-8 assay. The settings on record: Homo sapiens.
Data set [6] has as its system NB-4. Put plainly: Inhibition of colony formation in human NB-4 cells measured after 14 days by nitroblue tetrazolium chloride staining based soft agar assay. Type of data set: functional, cell-based. The settings on record: dose 5-15 µM, time 14.0 day, DDE = dose-dependent effect.
Data set [7] is described as follows: Acute toxicity in BALB/c mouse assessed as body weight loss at 20 mg/kg, ip administered once daily for 7 days. It counts as organism-based. The settings on record: in vivo, 168 h, time 7 day.
Data set [8] concerns MONO-MAC-6. Put plainly: Antitumor activity against human MONO-MAC-6 cells xenografted in busulfan treated NSG mouse assessed as increase in animal survial rate at 20 mg/kg, ip administered once daily for 22 days. It counts as functional, organism-based. The settings on record: time 22.0 day. A general note: In xenograft studies the graft and the host belong to different species.

Data set [9] can be described thus: Toxicity in busulfan treated NSG mouse xenografted with human MONO-MAC-6 cells assessed as reduction in body weight at 20 mg/kg, ip administered once daily for 22 days. The note with it: in vivo, 528 h, time 22 day. It counts as organism-based.
The target in data set [10] is T1, Alpha-ketoglutarate-dependent dioxygenase FTO.
Target sequence in this assay (Q9C0B1 whole entry, looked up): as the sequence (Q9C0B1 whole entry) above
Description: Binding affinity to N-terminal His-tagged human FTO expressed in Escherichia coli BL21(DE3) assessed as change in melting temperature at 1:5 protein to compound ratio by fluorescence based thermal shift assay
For data set [11] the target is unchanged. The source holds these as a separate data set.
Target sequence in this assay (Q9C0B1 whole entry, looked up): as the sequence (Q9C0B1 whole entry) above
Description: Binding affinity to N-terminal His-tagged human FTO expressed in Escherichia coli BL21(DE3) assessed as change in melting temperature at 1:20 protein to compound ratio by fluorescence based thermal shift assay

In general, pIC50 refers to the IC50 on a negative log10 scale, so that one unit is a factor of ten. In the case of `Cc1cc(-c2cc(Cl)c(Nc3ccccc3C(=O)O)c(Cl)c2)ccn1`, in data set [1], the negative-log IC50 (pIC50) is 5.19.
On the same count and under the same terms, to `COc1cccc(Nc2c(Cl)cc(-c3c(C)noc3C)cc2Cl)c1C(=O)O` belongs 5.66.
For `Cc1noc(C)c1-c1cc(F)c(Nc2ccccc2C(=O)O)c(Cl)c1`, the outcome with NB-4 [2], in the data set on MONO-MAC-6 [3] and in the data set with MONO-MAC-6 [8] was Active. For the same molecule, the negative-log IC50 (pIC50) was 5.68 with NB-4 [4], 5.72 in the data set with MONO-MAC-6 [5], 5.14 with THP-1 and 5.11 in the data set with HEL. Besides, the inhibition entry with NB-4 [6] was “Dde”. Also, the values for the Activity entry in data set [7] and in data set [9] were “Non-Toxic” and “Toxic”, respectively.
For the molecule `O=C(O)c1ccccc1Nc1c(Cl)cc(-c2cc(O)cc(O)c2)cc1Cl`, in data set [1], the pIC50 is 5.62.
On the same count and under the same terms, to `Cc1noc(C)c1-c1cc(Cl)c(Nc2cccc(F)c2C(=O)O)c(Cl)c1` belongs 5.80; to `Cc1noc(C)c1-c1cc(Cl)c(Nc2ccc(F)cc2C(=O)O)c(Cl)c1`, 5.96; to `O=C(O)c1ccccc1Nc1c(Cl)cc(-c2cnoc2)cc1Cl`, 5.77.
`O=C(O)c1ccccc1Nc1c(Cl)cc(-c2ccn[nH]2)cc1Cl`: the pIC50 in data set [1] is 5.14.
For orientation: ΔTm means the change in melting temperature against a reference sample. In turn, `O=C(O)c1ccccc1Nc1c(Cl)cc(-c2ccncc2)cc1Cl` had a negative logarithm of the IC50 (pIC50) in [1] of 5.82. In addition, the ΔTm in [10] turned out to be 0.5 °C; in [11] it was 1.5 °C.
In data set [1], `Cc1cc(-c2c(C)noc2C)cc(C)c1Nc1ccccc1C(=O)O` showed a negative-log IC50 (pIC50) of 5.72.
As to `COc1cc(-c2c(C)noc2C)cc(OC)c1Nc1ccccc1C(=O)O`, the outcome in the data set on NB-4 [2] and in the data set with MONO-MAC-6 [3] was Active.
Turning to `Cc1noc(C)c1-c1ccc(Nc2ccccc2C(=O)O)cc1`, the result with NB-4 [2] and in the data set with MONO-MAC-6 [3] was Active.
In the case of `CCc1cc(-c2c(C)noc2C)cc(CC)c1Nc1ccccc1C(=O)O`, in data set [1], the pIC50 is 5.85.
Same read-out and setting: the figure for `Cc1noc(C)c1-c1cc(Cl)c(Nc2cc(F)c(F)cc2C(=O)O)c(Cl)c1` is 5.47.
